Test results: US9481700B2, “Method for preparing isofagomine and its derivatives” (Amicus Therapeutics, Inc., priority 2007, dated 2016)
Structures can show the parent of a compound that is named as a salt.

Experiments:
[1] = biological target: T1, human GCase (Homo sapiens, UniProt P04062); experiment: Phase 1 clinical trials, GCase activity in healthy volunteers; format: in vivo
T1 construct: human GCase in healthy volunteers; endogenous in cells
T1 sequence (P04062 40-536): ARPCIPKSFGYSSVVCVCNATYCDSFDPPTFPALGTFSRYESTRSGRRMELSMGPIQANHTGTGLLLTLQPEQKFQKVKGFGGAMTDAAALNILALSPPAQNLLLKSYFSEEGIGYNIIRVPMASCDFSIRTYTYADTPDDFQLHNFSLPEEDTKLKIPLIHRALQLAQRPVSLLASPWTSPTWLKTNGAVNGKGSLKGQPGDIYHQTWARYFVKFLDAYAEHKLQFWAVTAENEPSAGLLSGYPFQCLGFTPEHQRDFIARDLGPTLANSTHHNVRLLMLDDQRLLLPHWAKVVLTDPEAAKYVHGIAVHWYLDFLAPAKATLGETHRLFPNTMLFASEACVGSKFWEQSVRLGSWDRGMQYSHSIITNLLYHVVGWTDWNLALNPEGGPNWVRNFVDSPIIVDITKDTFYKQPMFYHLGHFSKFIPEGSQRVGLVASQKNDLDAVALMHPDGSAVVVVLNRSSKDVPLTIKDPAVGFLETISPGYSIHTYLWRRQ
Excerpt: (§1) In the absence of the “pharmacological chaperone,” the mutated enzyme protein misfolds in the ER (Ishii et al., Biochem. Biophys. Res. Comm. 1996; 220: 812-815), is retarded in its maturation to a final product, and is subsequently degraded by the ER-associated degradation mechanism. Homozygous mutant GCase is associated with the lysosomal storage disease Gaucher disease.

[2] = test system: GCase; experiment: Phase 2 clinical trials, GCase activity in Gaucher patients expressing certain missense mutations; format: in vivo, human; settings: Gaucher patients expressing certain missense mutations that create misfolded GCase
Excerpt: as §1

[3] = test system: GCase; experiment: Mouse model of Gaucher disease expressing mutations in the Gba gene; settings: in vivo, unpublished data
Excerpt: as §1

[4] = test system: mutant GCase; settings: in vitro, fibroblasts from Gaucher patients; cited from earlier work

increase of the activity of human GCase [1]	GCase activity [2]	SMILES	GCase activity [3]	phenotype [3]	activity of mutant GCase [4]
up to 3.5 fold	increase in GCase activity	OC[C@H]1CNC[C@@H](O)[C@@H]1O [IFG tartrate]	–	–	–
–	–	OC[C@H]1CNC[C@@H](O)[C@@H]1O [IFG, (3R,4R,5R)-3,4-dihydroxy-5-hydroxymethyl-piperidine]	increases GCase activity	improves the phenotype	increase the activity of mutant GCase
